Literature values in patent publication US20240280563A1, “SYSTEMS AND METHODS FOR ION CHANNEL KINETICS ANALYSIS IN CLUSTERS OF ION CHANNELS” (Ohio State Innovation Foundation, priority 2023, published 2024).

Test system: NaVs
Details: disruption of cooperativity with difopein; this and previous studies (Clatot et al. 2017; Zheng and Deschênes 2023)

## difopein
  effect on whole cell sodium current density: does not change significantly
